Source: PubChem BioAssay AID1918994 (Molecular Pharmacology Branch, DTP, NCI, 2023)
Each block holds one compound with its values, some of them ahead of it.

System: 292921-168-R-J2-PDC complex spheroid growth
Assay: Anticancer human tumor 292921-168-R-J2-PDC patient-derived pancreatic carcinoma cell line growth inhibition [AhR]
Conditions: for IC50: curve of first compound; for viability, T/C: stronger effect = lower value
Text: Multicellular complex tumor spheroid response to aryl hydrocarbon receptor antagonists in combination with a variety of drugs and investigational agents in selected tumor cell lines
The current study was undertaken to assess response to aryl hydrocarbon receptor antagonists in combination with standard-of-care drugs and investigational agents in solid tumor complex spheroid models. Complex spheroids include a stromal component modeled by human endothelial cells (HUVEC) and fibroblasts modeled by human mesenchymal stem cells (MSCs). The concentration ranges selected for each drug and investigational agent were based upon clinically achievable concentrations if the clinical Cmax of the agent was known.
Compounds. The drugs and investigational agents: BAY 2416964 (NSC825713), GNF351 (NSC835774), CH-223191 (NSC835775), CPI-455 (NSC825282), aza-TdCyd (NSC777586), decitabine (NSC127716), belinostat (NSC758774), entinostat (NSC756642), pevonedistat (NSC761192), tazemetostat (NSC777109), talazoparib (NSC765396), olaparib (NSC753686), selinexor (NSC780203), nedisertib (M3814, NSC802822), bortezomib (NSC756655), venetoclax (NSC766270), doxorubicin (NSC123127), elimusertib (BAY189344, NSC800525), ceralasertib (AZD6738, NSC777638), TAK-243 (NSC785004), alisertib (NSC759677), etoposide (NSC141540), topotecan (NSC609699), eribulin (NSC707389), gemcitabine (NSC613327), carboplatin (NSC241240), cisplatin (NSC119875), and SN-38 (NSC673596) were obtained from the National Cancer Institute (NCI) Developmental Therapeutics Program Chemical Repository (32). The FDA-approved anticancer drug set is available from the Developmental Therapeutics Program at https://dtp.cancer.gov/organization/dscb/obtaining/available plates.htm. […] The stock solutions were prepared in dimethyl sulfoxide (DMSO, Sigma-Aldrich, St. Louis, MO, cat. D2650), except for the platinum compounds which were prepared in saline (Quality Biological, Gaithersburg, MD, cat. 114-055-101), at 800-fold the tested concentration and stored at -70 degrees C prior to their use. All drugs and investigational agents were tested over a range starting from a high concentration at or near the clinical Cmax and decreasing in half-log increments. If the clinical Cmax for an agent had not been determined, the highest concentration tested was 10 microM (Table 1).
Cell Culture. All cells were maintained in an incubator at 37 degrees C and 5% CO2 with 95% humidity. The PDC lines were cultured according to standard operating procedures established by the NCI PDMR (https://pdmr.cancer.gov). Briefly, all PDCs were thawed and cultured in Matrigel-coated flasks prepared with a working solution of 1X Ham's F-12 nutrient mix, without supplementation (Invitrogen, Waltham, MA, cat. 11765054), 100 U/mL penicillin-streptomycin (Invitrogen, cat. 15140122), and 2.5% Matrigel (Corning Inc., Corning, NY, cat. 354248) for the first three passages. All PDCs were cultured in complete DMEM/F-12 media containing advanced DMEM/F-12 (Invitrogen, cat. 12634028), 4.9% defined fetal bovine serum, heat inactivated (HyClone Laboratories Inc., Logan, UT, cat. SH30070.03HI), 389 ng/mL hydrocortisone (Sigma-Aldrich, cat. H4001), 9.7 ng/mL human EGF recombinant protein (Invitrogen, cat. PHG0313), 23.4 microg/mL adenine (Sigma-Aldrich, cat. A2786), 97.3 U/mL penicillin-streptomycin (Invitrogen, cat. 15140122), 1.9 mM L-glutamine (Invitrogen, cat. 25030081), and 9.7 microM Y-27632 dihydrochloride (Tocris Bioscience, Bristol, United Kingdom, cat. 1254). The PDCs were cultured in complete DMEM/F12 media without 10 microM Y-27632 dihydrochloride for at least two passages prior to the screen. The established cell lines NCI-H1341 and […] were cultured in DMEM/F-12, HEPES (Invitrogen, cat. 11330032), 5% defined fetal bovine serum (HyClone Laboratories Inc., cat. SH30070.03), ITS premix universal culture supplement [insulin (5 microg/mL), transferrin (5 microg/mL), and selenious acid (5 ng/mL)] […]

[1] = second compound 0.1 µM, first compound 0.0316 µM
[2] = second compound 0.1 µM, first compound 0.1 µM
[3] = second compound 0.1 µM, first compound 0.316 µM
[4] = second compound 0.1 µM, first compound 1 µM
[5] = second compound 0.1 µM, first compound 3.16 µM
[6] = second compound 0.1 µM, first compound 10 µM
[7] = second compound 0.316 µM, first compound 0.0316 µM
[8] = second compound 0.316 µM, first compound 0.1 µM
[9] = second compound 0.316 µM, first compound 0.316 µM
[10] = second compound 0.316 µM, first compound 1 µM
[11] = second compound 0.316 µM, first compound 3.16 µM
[12] = second compound 0.316 µM, first compound 10 µM
[13] = second compound 1 µM, first compound 0.0316 µM
[14] = second compound 1 µM, first compound 0.1 µM
[15] = second compound 1 µM, first compound 0.316 µM
[16] = second compound 1 µM, first compound 1 µM
[17] = second compound 1 µM, first compound 3.16 µM
[18] = second compound 1 µM, first compound 10 µM
[19] = second compound 3.16 µM, first compound 0.0316 µM
[20] = second compound 3.16 µM, first compound 0.1 µM
[21] = second compound 3.16 µM, first compound 0.316 µM
[22] = second compound 3.16 µM, first compound 1 µM
[23] = second compound 3.16 µM, first compound 3.16 µM
[24] = second compound 3.16 µM, first compound 10 µM
[25] = second compound 10 µM, first compound 0.0316 µM
[26] = second compound 10 µM, first compound 0.1 µM
[27] = second compound 10 µM, first compound 0.316 µM
[28] = second compound 10 µM, first compound 1 µM
[29] = second compound 10 µM, first compound 3.16 µM
[30] = second compound 10 µM, first compound 10 µM
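Further: spheroids exposed to compounds for seven days after three days of growth.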

IC50 (second compound 0.1 µM): 6.1 nM
IC50 (second compound 0.316 µM): 5.42 nM
IC50 (second compound 1 µM): 6.01 nM
IC50 (second compound 3.16 µM): 5.29 nM
IC50 (second compound 10 µM): 4.43 nM
Compound: CC(C)CC(NC(=O)C(Cc1ccccc1)NC(=O)c1cnccn1)B(O)O (stereo not given) + CC(CO)NC(=O)c1cc(-c2ccc(Cl)cc2)nn(-c2cnn(C)c2)c1=O
viability, T/C (second compound 0.1 µM, first compound 0.000949 µM): 105%
viability, T/C (second compound 0.1 µM, first compound 0.003 µM): 107%
viability, T/C (second compound 0.1 µM, first compound 0.00949 µM): 15.2%
viability, T/C (second compound 0.1 µM, first compound 0.03 µM): 2.8%
viability, T/C (second compound 0.1 µM, first compound 0.0949 µM): 1.2%
viability, T/C (second compound 0.1 µM, first compound 0.3 µM): 0.49%
viability, T/C (second compound 0.316 µM, first compound 0.000949 µM): 109%
viability, T/C (second compound 0.316 µM, first compound 0.003 µM): 90.4%
viability, T/C (second compound 0.316 µM, first compound 0.00949 µM): 11.8%
viability, T/C (second compound 0.316 µM, first compound 0.03 µM): 1.8%
viability, T/C (second compound 0.316 µM, first compound 0.0949 µM): 0.5%
viability, T/C (second compound 0.316 µM, first compound 0.3 µM): 0.59%
viability, T/C (second compound 1 µM, first compound 0.000949 µM): 101%
viability, T/C (second compound 1 µM, first compound 0.003 µM): 102%
viability, T/C (second compound 1 µM, first compound 0.00949 µM): 15.8%
viability, T/C (second compound 1 µM, first compound 0.03 µM): 2.98%
viability, T/C (second compound 1 µM, first compound 0.0949 µM): 1.25%
viability, T/C (second compound 1 µM, first compound 0.3 µM): 1.42%
viability, T/C (second compound 3.16 µM, first compound 0.000949 µM): 85.8%
viability, T/C (second compound 3.16 µM, first compound 0.003 µM): 85.6%
viability, T/C (second compound 3.16 µM, first compound 0.00949 µM): 13.2%
viability, T/C (second compound 3.16 µM, first compound 0.03 µM): 2.3%
viability, T/C (second compound 3.16 µM, first compound 0.0949 µM): 2.01%
viability, T/C (second compound 3.16 µM, first compound 0.3 µM): 1.89%
viability, T/C (second compound 10 µM, first compound 0.000949 µM): 77.6%
viability, T/C (second compound 10 µM, first compound 0.003 µM): 70%
viability, T/C (second compound 10 µM, first compound 0.00949 µM): 11%
viability, T/C (second compound 10 µM, first compound 0.03 µM): 1.4%
viability, T/C (second compound 10 µM, first compound 0.0949 µM): 2.28%
viability, T/C (second compound 10 µM, first compound 0.3 µM): 2.01%

IC50 (second compound 0.1 µM): 190 nM
IC50 (second compound 0.316 µM): 148 nM
IC50 (second compound 1 µM): 195 nM
IC50 (second compound 3.16 µM): 116 nM
IC50 (second compound 10 µM): < 31.6 nM
Compound: Nc1ccccc1NC(=O)c1ccc(CNC(=O)OCc2cccnc2)cc1 + CC(CO)NC(=O)c1cc(-c2ccc(Cl)cc2)nn(-c2cnn(C)c2)c1=O
viability, T/C [1]: 67.5%
viability, T/C [2]: 58.8%
viability, T/C [3]: 43%
viability, T/C [4]: 31%
viability, T/C [5]: 25.5%
viability, T/C [6]: 9.72%
viability, T/C [7]: 69%
viability, T/C [8]: 51.2%
viability, T/C [9]: 44.3%
viability, T/C [10]: 28.1%
viability, T/C [11]: 23.7%
viability, T/C [12]: 10.4%
viability, T/C [13]: 66.6%
viability, T/C [14]: 60.7%
viability, T/C [15]: 43.4%
viability, T/C [16]: 25.4%
viability, T/C [17]: 23.7%
viability, T/C [18]: 9.21%
viability, T/C [19]: 60.8%
viability, T/C [20]: 51.1%
viability, T/C [21]: 43.3%
viability, T/C [22]: 23.1%
viability, T/C [23]: 22.7%
viability, T/C [24]: 8.28%
viability, T/C [25]: 45.9%
viability, T/C [26]: 40.5%
viability, T/C [27]: 32.9%
viability, T/C [28]: 19.4%
viability, T/C [29]: 18.1%
viability, T/C [30]: 5.12%

IC50 (second compound 0.1 µM): 279 nM
IC50 (second compound 0.316 µM): 327 nM
IC50 (second compound 1 µM): 261 nM
IC50 (second compound 3.16 µM): 146 nM
IC50 (second compound 10 µM): < 31.6 nM
Compound: O=C(C=Cc1cccc(S(=O)(=O)Nc2ccccc2)c1)NO + CC(CO)NC(=O)c1cc(-c2ccc(Cl)cc2)nn(-c2cnn(C)c2)c1=O
viability, T/C [1]: 72.2%
viability, T/C [2]: 56.7%
viability, T/C [3]: 48.6%
viability, T/C [4]: 35.1%
viability, T/C [5]: 28.5%
viability, T/C [6]: 1.96%
viability, T/C [7]: 74%
viability, T/C [8]: 63.3%
viability, T/C [9]: 46.1%
viability, T/C [10]: 36.3%
viability, T/C [11]: 30.7%
viability, T/C [12]: 2.62%
viability, T/C [13]: 67.8%
viability, T/C [14]: 57.3%
viability, T/C [15]: 46.5%
viability, T/C [16]: 35.4%
viability, T/C [17]: 28.7%
viability, T/C [18]: 3.31%
viability, T/C [19]: 64%
viability, T/C [20]: 52%
viability, T/C [21]: 41.9%
viability, T/C [22]: 31%
viability, T/C [23]: 22.5%
viability, T/C [24]: 2.61%
viability, T/C [25]: 50.4%
viability, T/C [26]: 43.6%
viability, T/C [27]: 39.1%
viability, T/C [28]: 29.1%
viability, T/C [29]: 20%
viability, T/C [30]: 1.62%
